Data taken from patent publication US5614504A, “Method of making inosine monophosphate derivatives and immunopotentiating uses thereof” (The University of South Florida, priority 1995, dated 1997).
Like-named read-outs stand apart in the source and are kept apart here.

Assays:
[1] = system: human peripheral blood lymphocytes (HPBL); assay: Reversal of suppression of HPBL PHA response by HIV gp41 peptide, interferon α and PGE2; type: cell-based; settings: for effect on gp41 peptide-suppressed PHA proliferation: MIMP 0.1-100 μg/ml
Description: A 17 amino acid sequence from the gp41 portion of the gp16O peptide of the human immunodeficiency virus (HIV) was synthesized and kindly provided to us by M. Strand (Johns Hopkins University, Baltimore, Md.) (Reugg and Strand, 1990).
Prostaglandin E2 was obtained from Sigma Chemicals (St. Louis, Mo.) and recombinant interferon-α (IFNα, Intron A) was obtained from Schering Corp. (Kenilworth, N.J.).
A synthetic 17 amino acid peptide representing the immunosuppressive site of the intramembranous gp41 portion of the human immunodeficiency virus (HIV) was tested on lymphocytes from controls. […] The effect of MIMP from 0.1-100 μg/ml was examined in combination with varying degrees of inhibition by the peptide.
Virus infections are associated with depressed lymphoproliferative responses.

[2] = system: spleen lymphocytes; assay: In vitro response to mitogens following in vivo oral administration; parameters: species or system mice; settings: oral Me-IMP for five days, 0-100 mg/kg
Experimental: In vivo: Compounds were administered orally, by garage, or intraperitoneally. At termination, spleens were obtained as described in Florentin et al. (1982) and cells were prepared for proliferative response with Con A=0.5 μg/ml, PHA=0.5 μg/ml or LPS=0.5 μg/ml.
Spleen lymphocytes were obtained from mice that had been orally administered Me-IMP for five days, range of 0-100 mg/kg body weight, and then sacrificed. The spleen lymphocytes were incubated with PHA (0.5 μg/ml) or Con A (0.5 μg/ml) for 48 hours. Cultures were pulsed with tritiated thymidine for the last 18 hours.

[3] = system: influenza virus; type: in vivo, NMRI mice; settings: for % mortality: Table 7, 200 μg, i.n.
[4] = system: human peripheral blood lymphocytes (HPBL); assay: Response of normal HPBL to PHA (tritiated thymidine incorporation); type: cell-based; settings: 0.1-100 μg/ml; FIG. 1
Experimental: In vitro: Both human peripheral blood lymphocytes (HPBL) and mouse spleen lymphocytes (MSL) were employed. […] For HPBL transformation, PHA and PWM were used at 0.5 μg/ml. For MSL transformation, Con A was used at 0.5 μg/ml, phytohemagglutinin (PHA, Murex Diagnostics, Atlanta, Ga.) at 0.5 μg/ml and lipopolysaccharide endotoxin (LPS, Sigma, St. Louis, Mo.) at 10 μg/ml.
They were cultured in microwell plates at 1.5×10^6 cells/ml of minimal essential media (MEM, Gibco Labs, Grand Island, N.Y.) with 5% fetal calf serum (FCS, Hyclone Labs, Logan, Utah) and tested for their proliferative response to mitogens as measured by incorporation of (^3 H) tritiated thymidine (New England Nuclear, Wilmington Del., […]; 2.5 μCi/ml) during a terminal pulse followed by liquid scintillation spectrometry.

[5] = Further set: percent hydrolysis by 5'-nucleotidase (Table 1B); type: in vitro ADME, Crotalus atrox; settings: rattlesnake, 20 minutes incubation, 200 μl
Experimental: Nucleotide samples (40-60 nmoles) were incubated at 37° C. for 10 minutes with 0.02 units 5'-nucleotidase in a total volume of 100 μl containing […] HEPES, pH 7.3 and […] MgCl2. […] Phosphate was determined by the absorbance of 820 nm. Blanks consisting of nucleotide but no enzyme were tested in parallel to correct for non-enzymatic hydrolysis.
The protocol was as hereinabove except that the first incubation was for 20 minutes in a total volume of 200 μl, 0.1 mM HEPES and 10 mM MgCl2. The percent hydrolysis of nucleotides was performed in duplicate for each assay.

[6] = system: IL-2; assay: PHA-induced IL-2 production; type: cell-based; settings: preliminary data
[7] = system: anti-HBs; assay: Anti-HBs production in normal DBA/2 mice (EIA); type: in vivo; settings: for anti-HBs, Day 14 / anti-HBs, Day 21: 50 mg/kg
Description: Different strains of mice, coded by Pre-S2 zone S-gene HBV for their immune responses for proteins place them in the following haplotype order (Benaceraf and McDevitt, 1972): H-2^b >H-2^d >H-2^s >H-2^k>H-2^f. […] Therefore, male DBA/2 mice weighing 16-18 grams were obtained from the Animal Laboratory, Academy of Medical Science, Russia, and were used in the examples set forth herein. This line of mice was chosen as they are poor responders to hepatitis B vaccine.
Serum specimens from immunized mice were tested for the presence of anti-HBs in an enzyme immunoassay (EIA) using the diagnostic kits of Roche Diagnostica as per the manufacturer's instructions. The anti-HBs EIA kit (Roche), has a sensitivity of <10 IU/1.
Antibody concentration was determined with the help of calibration curves designed on the basis of the results of anti-HBs detection in standard serum panel (Roche Diagnostica) with the concentrations, as follows: 10 IU/l; 50 IU/l; 100 IU/l and 150 IU/l. The results of the two experiments were used for the calculation of mean values.
HBsAg was administered at a dose of […] in 0.2 ml PBS (pH 7.4) twice with an interval of two weeks between injections.
A protected-IMP, MIMP, was introduced both orally or intraperitoneally at a dose of 50 mg/kg.
The results of anti-HBs detection in the control group of mice treated with HBsAg alone and in the groups treated with the combination of HBsAg and MIMP, as prepared in the examples, are presented in Table 9. The various vaccination schedules are provided in the following list.

[8] = system: IL-10; assay: PHA-induced IL-10 production; type: cell-based; settings: preliminary data
[9] = system: γ-IFN; assay: PHA-induced γ-IFN production; type: cell-based; settings: preliminary data
[10] = system: CD8+ lymphocytes; assay: PHA response of CD8+ enriched human lymphocytes; type: cell-based; settings: MIMP 1-200 μg/ml, 3 donors, p <0.01
Description: Human CD4+ and CD8+ lymphocyte subsets were obtained from normal controls using commercial panning techniques (Applied Immune Sciences, Santa Clara, Calif.).
Human peripheral blood lymphocytes are on average approximately 80% T lymphocytes and 20% B lymphocytes and of the T lymphocytes, 2/3 are of the CD4+ helper/inducer phenotype and 1/3 are the CD8+ suppressor/cytotoxic phenotype. Enrichment of CD4+ T cells or CD8+ T cells can be achieved through reduction of the other phenotype (>98%) removal using adherence to monoclonal antibody-coated flasks (panning).

[11] = scheme 3: HBsAg + MIMP i.p. simultaneously then MIMP per os, p < 0.01

## COP(=O)(O)OC[C@H]1O[C@@H](n2cnc3c(=O)[nH]cnc32)[C@H](O)[C@@H]1O [Me-IMP, Methyl-5'-inosine-monophosphate]
[1]; inhibition more severe (>50%)
  effect on gp41 peptide-suppressed PHA proliferation: not significant
[1]; peptide-induced suppression less than 50%
  effect on gp41 peptide-suppressed PHA proliferation: restored the proliferative responses to near-normal ranges
[1]; MIMP 1, 10, 100 μg/ml, 10 and 100 units/ml IFN α
  effect on rIFN-α inhibition of PHA response: reverse the inhibition when it is moderate
[1]; MIMP 1-100 μg/ml, PGE2 10^-5 M
  effect on PGE2 inhibition of PHA response: reverse the inhibition
[2]
  Con A response of spleen lymphocytes: stimulated
  PHA response of spleen lymphocytes: stimulated
[3]; -1 h
  % mortality: 80%
[3]; -1 d
  % mortality: 60%
[3]; mouse, in vivo
  number of survivors and mean survival time (MST): increased the number of survivors and mean survival time
  survival and MST: increased survival and MST
[4]
  relative activity on HPBL response to PHA: more active
[5]; read-out: Percent hydrolysis by 5'-nucleotidase, Assay 1
  metabolised at 20 min: 1.5%
[5]; read-out: Percent hydrolysis by 5'-nucleotidase, Assay 2
  metabolised at 20 min: 2.2%
[5]; read-out: Percent hydrolysis by 5'-nucleotidase, Assay 3
  metabolised at 20 min: 2.6%
[6]
  effect on PHA-induced IL-2: only a small effect
[7]; scheme 2: HBsAg + MIMP per os 30 minutes prior to vaccine
  anti-HBs, Day 14: < 10 IU/1
[7]; scheme 2: HBsAg + MIMP per os 30 minutes prior to vaccine, 0.01 < p < 0.05
  anti-HBs, Day 21: 370 IU/1
[7]; [11]
  anti-HBs, Day 14: 100 IU/1
  anti-HBs, Day 21: 610 IU/1
[7]; scheme 4: HBsAg + MIMP i.p. simultaneously, 0.01 < p < 0.05
  anti-HBs, Day 21: 420 IU/1
[7]; scheme 4: HBsAg + MIMP i.p. simultaneously, p < 0.01
  anti-HBs, Day 14: 100 IU/1
[7]; single intraperitoneal or single oral dose of 50 mg/kg
  level of antibodies to HBsAg: significant increase
[8]
  effect on IL-10 production: potently inhibits
[9]
  effect on PHA-induced γ-IFN: only a small effect
[10]
  PHA response of CD8+ lymphocytes: significantly augmented
